According to US20070280982A1, “Antimicrobial compositions comprising hop acid alkali salts and uses thereof” (priority 2006, published 2007):

How the values were obtained:
[1] = test system: B. subtilis; experiment: Shelf-life extension (bacteriostatic) assay, broth dilution, FIG. 1 and FIG. 3; type: cell-based, Bacillus subtilis; conditions: glycine alone versus combined with beta acid sodium salts
Method: Shelf-life extension assays were performed using the broth dilution method. Final inoculum concentration was […]. Microbial growth was assayed with a spectrophotometer by monitoring the absorption at 600 nm after 2 to 3 days. […] After incubation, colonies were counted.

[2] = test system: Bacillus subtilis; conditions: cited from earlier work

NCC(=O)O [Glycine]
Effect on bacterial growth, alone or in combination (FIG. 3) [1]: almost no effect on bacterial growth | Known activity against Bacillus subtilis [2]: relatively weak activity
